# Assay results from patent publication US20050277600A1, “Compositions and methods of use of dimer digallates” (Mars, Incroporated, priority 2004, published 2005).
# Key:
# [1] = system: human umbilical vein endothelial cell (HUVEC) NO production; assay: HUVEC NO production (NOx in cell culture medium, chemiluminescence); type: cell-based; details: for HUVEC Cells NOx, 24 hr / HUVEC Cells NOx, 5 d / HUVEC Cells NOx, 2 hr: Table 2 summary
# Method: Several compounds were investigated for their effect on nitric oxide (NO) production and vasorelaxation using serum-free human umbilical vein endothelial cell (HUVEC) culture system in vitro and rabbit aortic ring model ex vivo, respectively. NO production by endothelial cells and relaxation of pre-constricted aortic rings are two main markers for evaluating vascular effects of test compounds.
# HUVECs obtained from a single donor were cultured in serum free, low protein (0.5 g/l), antibiotic-free cell culture medium supplemented with essential growth factors, nutrients and minerals. […] The cell culture medium was substituted with apo-transferrin, superoxide dismutase, and catalase to exclude secondary effects of test compounds involving their auto-oxidation mediated hydrogen peroxide formation.
# NO production was evaluated by measuring the total amount of all major nitric oxide end products (NOx, including nitrate, nitrite, nitrosothiols) present in the cell culture medium. […] The amount of NO released from the culture medium was subsequently evaluated by measuring the chemiluminescence emitted during the stoichiometrical reaction between ozone and NO using a NO Analyzer (Sievers Instruments, Inc. Boulder, Colo.).
# The data presented herein were obtained from three experiments and were expressed as the concentration of NO present (in μmol/l) (as NOx) in the cell culture medium+/−standard deviation (SD). The data were corrected for the NOx intrinsically present in the fully supplemented cell culture medium and normalized with respect to the volume of media from which the sample was drawn. Data were analyzed using Student's t-test with a 95% level of confidence. P values equal to or less than 0.05 were defined as statistically significant.
# For the acute effect test, HUVECs were incubated with the test compounds for 2 hours at concentrations of 100 nM, 1 μM, and 10 μM at 37° C. and 5% CO2. […] (FIG. 1)
# For the chronic effect test, HUVECs were incubated with 5 subsequent doses of test compounds, each for 24 hours. After each 24 hour treatment, culture medium was replaced.
# For the acute effect test, HUVECs were incubated with a single dose of the test compounds for 24 hours at concentrations of 100 nM, 1 μM, and 10 μM at 37° C. and 5% CO2.
# HUVEC = assay: HUVEC-mediated MTT reduction (toxic effects); details: for cell-mediated MTT reduction: 10 μM (20 μM for the Epicatechin gallates); for cell-mediated reduction of MTT: 1 μM
# Method: Cell counts and total protein were used to assess intra-assay variation. Potential toxic effects of tested compounds were also monitored (MTT reduction was measured).
# rabbit aortic rings = assay: Relaxation of norepinephrine pre-constricted rabbit aortic rings ex vivo
# Method: Several compounds were investigated for their effect on nitric oxide (NO) production and vasorelaxation using serum-free human umbilical vein endothelial cell (HUVEC) culture system in vitro and rabbit aortic ring model ex vivo, respectively. NO production by endothelial cells and relaxation of pre-constricted aortic rings are two main markers for evaluating vascular effects of test compounds. Effect of different procyanidins on endothelium-dependent relaxation was tested in an ex vivo experiment performed as previously described by Karim et al., J. Nutrl Suppl., 130 (8S): […]-[…] (2000), the relevant portions of which are hereby incorporated herein by reference. The advantage of using this method is that it assesses functional vascular end points. […] In summary, rabbit aortic rings were obtained from male New Zealand White rabbits. Following isolation, the rings were mounted in oxygenated Kreb's buffer, and pre-constricted with norepinephrine (NE) (10^-6 M). […] A positive control acetylcholine (10^-9 to 10^-4 M) and a negative control L-NAME were included in the experiment. Use of L-NAME, which is a NO synthase (NOS) inhibitor, allows for differentiating between endothelium dependent and endothelium independent relaxation events. […] The relaxation response was measured as a function of the decrease in the tension (g) exerted by the aortic rings over time […]. Data obtained were expressed as a percent relaxation of the norepinephrine (NE) constricted rings. The same statistical approach as described above was used. Dose response curves were obtained by plotting the average percent relaxation (+/-SE) against the concentrations used.
# [2] = system: human umbilical vein endothelial cell (HUVEC) NO production; assay: HUVEC NO production (NOx in cell culture medium, chemiluminescence); type: cell-based; details: Experiment 1, 24 h after single dose, 1 mM (so in the source)
# [3] = Experiment 2, chronic, 5 x 24 hours, 1 μM or 2 μM for EGC
# [4] = Experiment 2, chronic, 5 x 24 hours
# [5] = Experiment 2, single dose, 24 hours, 1 μM
# [6] = Experiment 2, single dose, 24 hours
# [7] = Experiment 2, single dose, 24 hours, 10 μM
# [8] = Experiment 1, 24 h after single dose, 10 μM
# [9] = Experiment 1, acute, 2 hours incubation, 10 μM
# [10] = Experiment 1, chronic, 5 subsequent 24 hour doses
# [11] = Experiment 4, 10^−9M -10^4M (so in the source)
compound,measurement,setting,value
"O=C(O[C@H]1[C@H](c2c(O)cc(O)c3c2O[C@H](c2ccc(O)c(O)c2)[C@H](OC(=O)c2cc(O)c(O)c(O)c2)C3)c2c(O)cc(O)cc2O[C@@H]1c1ccc(O)c(O)c1)c1cc(O)c(O)c(O)c1 [C-(4α→8)-EC digallate, (+)-Catechin-(4α,8)-(−)-Epicatechin Digallate]","HUVEC Cells NOx, 24 hr",[1],no effect
same,"HUVEC Cells NOx, 5 d",[1],No significant NOx increase;
same,MTT reduction,HUVEC; [3],decline in MTT reduction
same,cell-mediated MTT reduction,HUVEC; [4],significant decline of cell-mediated MTT reduction
same,"relaxation response, percent relaxation of NE constricted rings","rabbit aortic rings; Experiment 2, 10^−4 M",40.7+/−9.2%
same,Max Relaxation,"rabbit aortic rings; Experiment 3, 100 μM",41%
same,"Aortic Ring Effective Conc,",rabbit aortic rings; Table 1 summary,100 µM
"O=C(O[C@H]1[C@@H](c2c(O)cc(O)c3c2O[C@H](c2ccc(O)c(O)c2)[C@H](OC(=O)c2cc(O)c(O)c(O)c2)C3)c2c(O)cc(O)cc2O[C@@H]1c1ccc(O)c(O)c1)c1cc(O)c(O)c(O)c1 [C-(4β→8)-EC digallate, (+)-Catechin-(4β,8)-(−)-Epicatechin Digallate]",NO production,[1]; [5],statistically significant increases in NO production
same,"HUVEC Cells NOx, 24 hr",[1]; 1 µM,"1 uM, sign. Incr. NOx; 10 uM,"
same,"HUVEC Cells NOx, 24 hr",[1]; 10 µM,"no sign. effect on NOx, Cell"
same,"HUVEC Cells NOx, 5 d",[1],No significant NOx increase;
same,cell-mediated MTT reduction,HUVEC; [4],significant decline of cell-mediated MTT reduction
same,cell-mediated reduction of MTT,HUVEC; [6],no effect on cell-mediated reduction of MTT
same,loss of HUVEC MTT reduction as compared to controls,HUVEC; [7],47%
same,"HUVEC Cells cell toxicity, 24 hr","HUVEC; Table 2 summary, 24 hr, 10 uM",toxicity
same,"relaxation response, percent relaxation of NE constricted rings","rabbit aortic rings; Experiment 2, 10^−4 M",72.4+/−17.4%
same,relaxation response,"rabbit aortic rings; Experiment 2, 10^−5 M",33.1%
same,Max Relaxation,"rabbit aortic rings; Experiment 3, 10 μM and 100 μM",72%
Oc1cc(O)c2c(c1)O[C@H](c1ccc(O)c(O)c1)[C@@H](O)[C@H]2c1c(O)cc(O)c2c1O[C@H](c1ccc(O)c(O)c1)[C@H](O)C2 [C-(4β→8)-EC],cell-mediated MTT reduction,HUVEC; [4],significant decline of cell-mediated MTT reduction
same,relaxation response,"rabbit aortic rings; Experiment 2, 10^−9 to 10^−4 M",No significant relaxation response
"Oc1cc(O)c2c(c1)O[C@H](c1ccc(O)c(O)c1)[C@H](O)[C@H]2c1c(O)cc(O)c2c1O[C@H](c1ccc(O)c(O)c1)[C@@H](O)C2 [EC-(4β→8)-C, (−)-Epicatechin-(4β,8)-(+)-Catechin]",NO production,[1]; [8],increased NO production
same,modulation of NO production,[1]; [9],statically significant ability to modulate NO production
same,HUVEC NO production,"[1]; Experiment 2, chronic, 5 subsequent 24 hour doses",increase in NO production which was significantly lower as compared to single dose treatment
same,NO production,[1]; [5],statistically significant increases in NO production
same,modulation of NO production,[1]; [7],statistically significant ability to modulate NO production
same,"HUVEC Cells NOx, 2 hr",[1],"10 uM, sign. NOx"
same,"HUVEC Cells NOx, 24 hr",[1],"1 uM and 10 uM, sign. Incr. in"
same,"HUVEC Cells NOx, 5 d",[1],"10 uM, significant NOx"
same,NO modulating effect after re-purification,[1]; re-purified compound (first lot contaminated with A1 dimer),no longer exhibited the NO modulating effect
same,cell-mediated reduction of MTT,HUVEC; [6],no effect on cell-mediated reduction of MTT
same,"relaxation response, percent relaxation of NE constricted rings","rabbit aortic rings; Experiment 1, 10^−4 M",58.36+/−11.35%
same,"relaxation response, percent relaxation of NE constricted rings","rabbit aortic rings; Experiment 1, 10^−5 M",42.7+/−11.81%
same,NO production,[2],increased NO production
"O=C(O[C@@H]1[C@@H](c2c(O)cc(O)c3c2O[C@H](c2ccc(O)c(O)c2)[C@H](OC(=O)c2cc(O)c(O)c(O)c2)C3)c2c(O)cc(O)cc2O[C@@H]1c1ccc(O)c(O)c1)c1cc(O)c(O)c(O)c1 [EC-(4β→8)-EC digallate, (−)-Epicatechin-(4β,8)-(−)-Epicatechin Digallate]",NO production,[1]; [8],increased NO production
same,modulation of NO production,[1]; [9],statically significant ability to modulate NO production
same,NO production,[1]; [10],attenuation of NO production
same,NO production,[1]; [5],statistically significant increases in NO production
same,modulation of NO production,[1]; [7],statistically significant ability to modulate NO production
same,"HUVEC Cells NOx, 2 hr",[1],"10 uM, sign. NOx"
same,"HUVEC Cells NOx, 24 hr",[1],"1 and 10 uM, sign. NOx inc."
same,"HUVEC Cells NOx, 5 d",[1],No significant NOx increase;
same,decline in MTT reduction,HUVEC; [10],55%
same,MTT reduction,HUVEC; [3],decline in MTT reduction
same,cell-mediated MTT reduction,HUVEC; [4],significant decline of cell-mediated MTT reduction
same,cell-mediated reduction of MTT,HUVEC; [6],no effect on cell-mediated reduction of MTT
same,"relaxation response, percent relaxation of NE constricted rings","rabbit aortic rings; Experiment 1, 10^−4 M",73.55+/−7.08%
same,"relaxation response, percent relaxation of NE constricted rings","rabbit aortic rings; Experiment 1, 10^−5 M",44.6+/−16.6%
same,Max Relaxation,"rabbit aortic rings; Experiment 3, 10 μM and 100 μM",74%
same,NO production,[2],increased NO production
Oc1cc(O)c2c(c1)O[C@H](c1ccc(O)c(O)c1)[C@H](O)[C@H]2c1c(O)cc(O)c2c1O[C@H](c1ccc(O)c(O)c1)[C@H](O)C2 [EC-(4β→8)-EC],MTT reduction,HUVEC; [10],decline in MTT reduction
same,relaxation response,"rabbit aortic rings; Experiment 1, 10^−9 to 10^−4 M",No significant relaxation response
"O=C(O[C@@H]1Cc2c(O)cc(O)cc2O[C@@H]1c1ccc(O)c(O)c1)c1cc(O)c(O)c(O)c1 [ECG, Epicatechingallate, reference compound]",cell-mediated MTT reduction,HUVEC; [4],significant decline of cell-mediated MTT reduction
same,relaxation response,rabbit aortic rings; [11],No significant relaxation response
"O=C(O[C@@H]1Cc2c(O)cc(O)cc2O[C@@H]1c1cc(O)c(O)c(O)c1)c1cc(O)c(O)c(O)c1 [EGCG, Epigallocatechingallate, reference compound]",modulation of NO production,[1]; [7],statistically significant ability to modulate NO production
same,"HUVEC Cells NOx, 24 hr",[1],"20 uM, sign. NOx inc."
same,"HUVEC Cells NOx, 5 d",[1],No significant NOx increase;
same,relaxation response,rabbit aortic rings; [11],No significant relaxation response
"(−)-Epicatechin-(4β,8)-(OMethyl)4-(−)-Epicatechin Digallate [EC-(4β→8)(OMethyl)4-EC digallate]","HUVEC Cells NOx, 2 hr",[1],no effect
same,"HUVEC Cells NOx, 24 hr",[1],no effect
same,"HUVEC Cells NOx, 5 d",[1],"10 uM, significant NOx increase"
same,relaxation response,"rabbit aortic rings; Experiment 1, 10^−9 to 10^−4 M",No significant relaxation response
